Results as given in PMC8899516, “Structure-Activity Relationship Studies of 4-((4-(2-fluorophenyl)piperazin-1-yl)methyl)-6-imino-N-(naphthalen-2-yl)-1,3,5-triazin-2-amine (FPMINT) Analogues as Inhibitors of Human Equilibrative Nucleoside Transporters” (Frontiers in Pharmacology, 2022).
pIC50: −log10 of the molar value.

Molecular target: T1, ENT1 (Homo sapiens, UniProt Q99808)
T1 construct: expressed in transfected cells
T1 sequence (Q99808 1-456): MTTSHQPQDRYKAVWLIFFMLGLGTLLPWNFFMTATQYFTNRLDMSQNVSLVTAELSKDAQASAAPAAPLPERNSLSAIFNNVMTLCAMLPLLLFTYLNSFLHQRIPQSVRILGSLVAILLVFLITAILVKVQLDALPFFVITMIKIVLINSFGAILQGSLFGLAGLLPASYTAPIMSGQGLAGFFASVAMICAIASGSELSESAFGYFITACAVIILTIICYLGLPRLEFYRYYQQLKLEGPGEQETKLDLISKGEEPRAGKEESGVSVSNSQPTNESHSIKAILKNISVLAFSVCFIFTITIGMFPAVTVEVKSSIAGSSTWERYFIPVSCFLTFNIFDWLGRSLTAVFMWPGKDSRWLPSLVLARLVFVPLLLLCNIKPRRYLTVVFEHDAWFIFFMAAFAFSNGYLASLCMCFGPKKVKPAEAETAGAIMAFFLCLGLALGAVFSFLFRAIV
Experiment: [3H]uridine uptake in PK15NTD/ENT1 cells
Format: cell-based
Conditions: [3H]uridine 1 μM, 1 min, PK15NTD/ENT1 cells; read-out: IC50 against ENT1
Procedure: Nucleoside transporter-deficient porcine kidney fibroblast cells (PK15NTD) stably transfected with cloned human ENT1 or ENT2 ([Ward et al., 2000]) were used as the in vitro models. The cells were cultured in Dulbecco’s Modified Eagle’s Medium (DMEM) supplemented with 10% (v/v) foetal bovine serum, 0.5 mg/ml geneticin, 100 units/ml penicillin, 100 μg/ml streptomycin and 0.25 μg/ml of amphotericin B at 37°C in 5% CO2/95% air.
Confluent monolayers of PK15NTD/ENT1 and PK15NTD/ENT2 cells in 24-well plates were washed thrice with HEPES-buffered Ringer’s solution containing (mM): 135 NaCl, 10 glucose, 5 KCl, 5 HEPES, 3.33 NaH2PO4, 1.0 CaCl2, 1.0 MgCl2, 0.83 Na2HPO4; pH 7.4. The cells were incubated with different concentrations of FPMINT analogues (from 10 nM to 100 μM) containing [^3H]uridine (2 μCi/ml, 1 μM) for 1 min. Passive uridine uptake was determined by incubating the cells in HEPES-buffered Ringer’s solution containing [^3H]uridine in the presence of 0.5 mM NBMPR. The cells were rapidly washed five times with ice-cold phosphate-buffered saline (PBS). After air-drying, the cells were solubilised by overnight incubation in 500 μl of 5% Triton-X100. Next, 300 μl of the cell lysates were mixed with 2 ml of scintillation liquid. The radioactivity of each sample was quantified by a scintillation counter. The protein content in each well was determined spectrophotometrically using a commercial bicinchoninic acid assay (Pierce Biochemicals, Rockford, IL). Uptake values were expressed as picomoles of [^3H]uridine per milligram of cellular protein per minute.
All data were analysed by GraphPad Prism software (San Diego, CA, United States). Data are expressed as mean ± standard error (SE) of three experiments performed in triplicate. The IC50 values were determined from the dose-response curves fitted with a logistic function. For the kinetic study of [^3H]uridine uptake, apparent K m and V max values were determined from the Michaelis-Menten equation, and K i was determined from the X-intercept of linear regression. Analysis of variance and Student’s t-test were performed for multiple and paired variables, respectively. p values of <0.05 were considered to be statistically significant.

Structure (SMILES): Cc1cccc(Nc2nc(N)nc(CN3CCN(c4ccc(F)cc4)CC3)n2)c1 [Compound 3c]
- pIC50: 5.62
